Experimental data published in patent US10870638B2, “Pyridazinone compound or its salt, and herbicide containing it” (ISHIHARA SANGYO KAISHA, LTD., priority 2016, dated 2020).

Columns and labels:
Type in all cases: in vivo
Settings in all cases: active ingredient amount 31 g/ha, 14th day after application
[1] = test system: green foxtail (Setaria viridis L.); test: Test Example 2: soil application on the day after sowing, growth inhibition rate on 14th day
Procedure, shortened: (§1)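 Pre-emergence soil spray, day after sowing; WP or EC formulations diluted to 1,000 L/ha water at set a.i. rates. Visual growth inhibition %, 0 = untreated, 100 = complete kill, read at day 14.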

[2] = test system: rice (Oryza sativa L.); test: as above
Procedure, shortened: as §1

[3] = test system: corn (Zea mays L.); test: as above
Procedure, shortened: as §1

[4] = test system: redroot pigweed (Amaranthus retroflexus L.); test: as above
Procedure, shortened: as §1

[5] = test system: velvetleaf (Abutilon theophrasti MEDIC.); test: as above
Procedure, shortened: as §1

[6] = test system: wheat (Triticum aestivum L.); test: as above
Procedure, shortened: as §1

[7] = test system: soybean (Glycine max Merr.); test: as above
Procedure, shortened: as §1

[8] = test system: prickly sida (Sida spinosa L.); test: as above
Procedure, shortened: as §1

[9] = test system: barnyardgrass (Echinochloa crus-qalli L.); test: as above
Procedure, shortened: as §1

[10] = test system: crabgrass (Digitaris sanquinalis L.); test: as above
Procedure, shortened: as §1

[11] = test system: green foxtail (Setaria viridis L.); test: Test Example 1: foliar treatment, growth inhibition rate on 14th day
Procedure, shortened: (§2)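 Growth inhibition rates (%) come from visual observation on the 14th day following a single foliar application. Soybean was sprayed at the primary leaf stage, rice at 0.2–2.7 leaves, wild oat at 0.4–1.2, green foxtail at 0.5–3.2.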

[12] = test system: rice (Oryza sativa L.); test: as above
Procedure, shortened: as §2

[13] = test system: corn (Zea mays L.); test: as above
Procedure, shortened: (§3)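 Using a small sprayer, formulated compound in water (0.1 vol % surfactant, 1,000 L/ha) was applied to seedlings grown from seed in upland soil. Fourteen days on, growth state was observed and expressed as percent inhibition from 0 to 100.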

[14] = test system: redroot pigweed (Amaranthus retroflexus L.); test: as above
Procedure, shortened: as §3

[15] = test system: wheat (Triticum aestivum L.); test: as above
Procedure, shortened: as §3

[16] = test system: crabgrass (Digitaria sanquinalis L.); test: as above
Procedure, shortened: as §3

[17] = test system: soybean (Glycine max Merr.); test: as above
Procedure, shortened: as §2

[18] = test system: italian ryegrass (Lolium multiflorum Lam.); test: as above
Procedure, shortened: as §3

[19] = test system: wild oat (Avena fatua L.); test: as above
Procedure, shortened: as §2

[20] = test system: barnyardgrass (Echinochloa crus-qalli L.); test: as above
Procedure, shortened: as §3

[21] = visual, 0 = non-treated, 100 = complete kill

| Structure (SMILES) | Growth inhibition rate (%) Green foxtail [1] | Growth inhibition rate (%) Rice [2] | Growth inhibition rate (%) Corn [3] | Growth inhibition rate (%) Redroot pigweed [4] | Growth inhibition rate (%) Velvetleaf [5] | Growth inhibition rate (%) Wheat [6] | Growth inhibition rate (%) Soybean [7] | Growth inhibition rate (%) Prickly sida [8] | Growth inhibition rate (%) Barnyardgrass [9] | Growth inhibition rate (%) Crabgrass [10] | Growth inhibition rate (%) Green foxtail [11] | Growth inhibition rate (%) Rice [12] | Growth inhibition rate (%) Corn [13] | Growth inhibition rate (%) Redroot pigweed [14] | Growth inhibition rate (%) Wheat [15] | Growth inhibition rate (%) Crabgrass [16] | Growth inhibition rate (%) Soybean [17] | Growth inhibition rate (%) Italian ryegrass [18] | Growth inhibition rate (%) Wild oat [19] | Growth inhibition rate (%) Barnyardgrass [20] | other results |
| --- | --- | --- | --- | --- | --- | --- | --- | --- | --- | --- | --- | --- | --- | --- | --- | --- | --- | --- | --- | --- | --- |
| CC(=O)Oc1c(C)nn(C)c(=O)c1-c1cc(Oc2nc3ccc(C(F)(F)F)nc3o2)ccc1C [Compound 2-121] | 100% | 0% | 20% | 0% | 0% | 0% | 0% | 0% | 100% | 98% | 100% | 90% | 20% | 20% | 78% | 98% | 0% | 98% | 98% | 100% |  |
| Cc1ccc(Oc2cnc3cc(Cl)ccc3n2)cc1-c1c(OC(=O)C=CCl)c(C)nn(C)c1=O [Compound 3-54] | 98% | 0% | 0% | 0% | 0% | 0% | 0% | 0% | 99% | 30% |  |  |  |  |  |  |  |  |  |  | Growth inhibition rate (%) Green foxtail [11, 21]: 100%; Growth inhibition rate (%) Rice [12, 21]: 20%; Growth inhibition rate (%) Corn [13, 21]: 30%; Growth inhibition rate (%) Redroot pigweed [14, 21]: 0%; Growth inhibition rate (%) Wheat [15, 21]: 93%; Growth inhibition rate (%) Crabgrass [16, 21]: 98%; Growth inhibition rate (%) Soybean [17, 21]: 20%; Growth inhibition rate (%) Italian ryegrass [18, 21]: 95%; Growth inhibition rate (%) Wild oat [19, 21]: 78%; Growth inhibition rate (%) Barnyardgrass [20, 21]: 100% |
| COCCOC(=O)Oc1c(C)nn(C)c(=O)c1-c1cc(Oc2cnc3cc(Cl)ccc3n2)ccc1C [Compound 3-55] | 60% | 0% | 0% | 0% | 0% | 0% | 0% | 0% | 80% | 30% |  |  |  |  |  |  |  |  |  |  | Growth inhibition rate (%) Green foxtail [11, 21]: 100%; Growth inhibition rate (%) Rice [12, 21]: 90%; Growth inhibition rate (%) Corn [13, 21]: 50%; Growth inhibition rate (%) Redroot pigweed [14, 21]: 0%; Growth inhibition rate (%) Wheat [15, 21]: 98%; Growth inhibition rate (%) Crabgrass [16, 21]: 99%; Growth inhibition rate (%) Soybean [17, 21]: 30%; Growth inhibition rate (%) Italian ryegrass [18, 21]: 99%; Growth inhibition rate (%) Wild oat [19, 21]: 99%; Growth inhibition rate (%) Barnyardgrass [20, 21]: 98% |
| CCc1nn(C)c(=O)c(-c2cc(Oc3nc4ccc(Cl)cc4o3)ccc2C)c1O [Compound 2-89] | 50% | 30% | 0% | 0% | 0% | 0% | 0% | 0% | 95% | 30% | 93% | 10% | 30% | 0% | 0% | 65% | 20% | 20% | 0% | 95% |  |
| CC(=O)Oc1c(C)nn(C)c(=O)c1-c1cc(Oc2ncc(Br)cc2Cl)ccc1C [Compound 2-135] | 90% | 0% | 0% | 0% | 0% | 0% | 10% | 0% | 90% | 75% | 95% | 80% | 93% | 0% | 88% | 90% | 0% | 95% | 90% | 93% |  |
| Cc1nn(C)c(=O)c(-c2cc(Oc3ncc(C(F)(F)F)cc3Cl)ccc2C2CC2)c1O [1-149] | 100% | 0% | 0% | 0% | 0% | 0% | 0% | 0% | 98% | 99% | 100% | 70% | 50% | 10% | 20% | 98% | 0% | 83% | 85% | 100% |  |
| CC(=O)Oc1c(C)nn(C)c(=O)c1-c1cc(Sc2ncc(C(F)(F)F)cc2Cl)ccc1C [1-42] | 100% | 80% | 40% | 0% | 0% | 0% | 0% | 0% | 100% | 100% | 100% | 88% | 100% | 10% | 100% | 100% | 10% | 100% | 100% | 100% |  |
| C=CCn1ncc(O)c(-c2cc(Oc3ncc(C(F)(F)F)cc3Cl)ccc2C)c1=O [1-167] | 95% | 0% | 0% | 0% | 0% | 0% | 0% | 0% | 85% | 100% | 100% | 35% | 100% | 0% | 40% | 99% | 10% | 93% | 98% | 98% |  |
| CC(=O)Oc1c(C)nn(C)c(=O)c1-c1cc(Oc2ncc(C(F)(F)F)cc2C(F)(F)F)ccc1C [Compound 2-116] | 100% | 0% | 85% | 0% | 0% | 60% | 0% | 0% | 100% | 100% | 100% | 90% | 100% | 0% | 99% | 100% | 10% | 100% | 100% | 100% |  |
